Source: US11053219B2, “Substituted pyridines as TYK2 inhibitors” (FronThera U.S. Pharmaceuticals LLC, priority 2018, dated 2021)
Where two headings read alike, the source gives them in different places.

Legend:
JAK1 (JH2 domain) = JAK1 (JH2 domain) (Homo sapiens (Human), UniProt P23458); assay: JAK1 JH2 domain binding assay (KINOMEscan)
[1] = test system: INFα induced pSTAT5 in human PBMC; assay: INFα induced pSTAT5 in human PBMC; type: cell-based; details: human PBMC, INFα 5000 units/ml; read-out: p-STAT5 IC50
TYK2 (JH2 domain) = TYK2 (JH2 domain) (Homo sapiens (Human), UniProt P29597); assay: TYK2 JH2 domain binding assay (DiscoverX KINOMEscan); details: 11-point 3-fold dilution, duplicate
Chain of TYK2 (JH2 domain) (P29597 589-875): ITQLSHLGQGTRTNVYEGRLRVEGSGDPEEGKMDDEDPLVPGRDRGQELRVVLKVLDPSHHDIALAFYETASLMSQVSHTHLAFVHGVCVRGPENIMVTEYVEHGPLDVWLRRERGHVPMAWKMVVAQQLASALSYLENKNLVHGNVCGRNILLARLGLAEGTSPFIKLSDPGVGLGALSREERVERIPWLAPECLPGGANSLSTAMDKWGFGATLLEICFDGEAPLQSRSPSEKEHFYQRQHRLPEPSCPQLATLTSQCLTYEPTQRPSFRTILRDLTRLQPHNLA

JAK2 (JH1 domain) = JAK2 (JH1 domain) (Homo sapiens (Human), UniProt O60674); assay: JAK2 JH1 domain binding assay (KINOMEscan)
Chain of JAK2 (JH1 domain) (O60674 849-1124): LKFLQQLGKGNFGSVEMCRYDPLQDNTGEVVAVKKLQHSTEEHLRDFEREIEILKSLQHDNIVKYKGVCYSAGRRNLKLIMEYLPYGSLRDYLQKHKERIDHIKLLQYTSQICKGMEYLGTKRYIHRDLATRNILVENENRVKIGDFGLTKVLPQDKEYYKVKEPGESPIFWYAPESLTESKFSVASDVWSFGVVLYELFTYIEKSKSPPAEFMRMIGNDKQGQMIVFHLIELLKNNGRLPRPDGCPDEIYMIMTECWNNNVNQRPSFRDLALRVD
Description: The assay is performed by combining three components: DNA-tagged kinase; immobilized ligand; and a test compound. The ability of the test compound to compete with the immobilized ligand is measured via quantitative PCR of the DNA tag.
The liganded beads were blocked with excess biotin and washed with blocking buffer (SeaBlock (Pierce), 1% BSA, 0.05% Tween 20, 1 mM DTT) to remove unbound ligand and to reduce non-specific binding. […] Test compounds were prepared as 111× stocks in 100% DMSO. All test compounds were shipped to DiscoverX in DMSO with concentration of 10 mM. Kds were determined using an 11-point 3-fold compound dilution series with three DMSO control points. Each compound was tested in duplicate. […] The compounds were then diluted directly into the assays such that the final concentration of DMSO was 0.9%. All reactions performed in polypropylene 384-well plate. Each was a final volume of 0.02 ml. […] The kinase concentration in the eluates was measured by qPCR.
The amount of kinase measured by qPCR (Signal; y-axis) is plotted against the corresponding compound concentration in nM in log 10 scale (x-axis). Binding constants (Kds) were calculated with a standard dose-response curve using the Hill equation:
Similar to the method for TYK2 JH2 binding described above, JAK1 JH2 and JAK2 JH1 domain binding assay was performed using DiscoverX's KINOMEscan™, but with change of kinase domain.

[2] = test system: GM-CSF-induced pSTAT5 in human PBMC; assay: GM-CSF-induced pSTAT5 in human PBMC; type: cell-based; details: GM-CSF 10 ng/ml
Description: (§1) Fresh Human PBMCs were resuspended in RPMI 1640 medium with 10% FBS. Cells were seeded in a round bottom 96-well plate at the concentration of 200,000 cells/well. A 10-point dilution series of test compound (top dose 10 uM, 1:5 dilution) was added to the well using the liquid dispenser (Tecan D300e) and incubated for 1 hour at 37 C. Then human IL-12 recombinant protein (R&D Systems) was added to the well at the final concentration of 10 ng/ml and incubated for 15 minutes at 37 C. Cell lysates were prepared and analyzed by Phospho STAT4 (Tyr693) Kit (Meso Scale Discovery) following manufacturer's protocol.
(§2) For calculation of the inhibition rate, the relative pSTAT4 signal of each well=pSTAT4 signal of each well−the average pSTAT4 signal of baseline. The inhibition %=(the average pSTAT4 signal of IL-12 treatment wells−the relative of pSTAT4 signal in each compound containing well)/the average pSTAT4 signal of IL-12 treatment wells*100%
(§3) The curve was plotted as the inhibition % (y-axis) vs. compounds concentration (x-axis) and was fitted with log(inhibitor) vs. normalized response—Variable slope by GraphPad Prism7.0. Control is BMS-986165:
(§4) Similar to the method for IL-12 induced pSTAT4 in human PBMC described above, these assays were performed to check if test compounds have cross-activity to JAK1. JAK2 and JAK3 pathways in human PBMC. The procedure is as described with change of stimuli to 10 ng/ml of GM-CSF or 20 ng/ml of IL-2.

[3] = test system: IL-2-induced pSTAT5 in human PBMC; assay: IL-2-induced pSTAT5 in human PBMC; type: cell-based; details: IL-2 20 ng/ml
Description: as §1, §2, §3, §4

[4] = Pharmacokinetic study in C57BL/6 mice; type: in vivo; details: male, mouse, plasma
Description: (§5) The pharmacokinetics of test compounds were evaluated in male C57BL/6 mice, Sprague Dawley rats, Beagle dogs, and cynomolgus monkeys when administered via oral gavage and IV injection. The animals were fasted overnight before administration. Plasma samples were collected predose and at 0.5, 1, 3, 6, 9, 12, and 24 hours postdose. The samples were analyzed by LC/MS/MS and the concentration of test compound at each timepoint was determined by linear regression. Pharmacokinetic parameters were calculated from the plasma concentrations using Pheonix WinNonlin.

[5] = Pharmacokinetic study in Sprague Dawley rats; type: in vivo; details: rat, plasma
Description: as §5

[6] = Pharmacokinetic study in cynomolgus monkeys; type: in vivo; details: cynomolgus monkey, plasma; for Vd: read-out: Vdss
Description: as §5

[7] = Pharmacokinetic study in Beagle dogs; type: in vivo; details: dog, plasma
Description: as §5

[8] = KINOMEscan, read-out: JAK1 (JH2 domain) binding Kd
[9] = iv, I.V. (1 mg/kg), read-out: C0 or Cmax (C0)
[10] = iv, I.V. (1 mg/kg), read-out: Vdss
[11] = Oral (2 mg/kg), NA: no detectable

Chain of JAK1 (JH2 domain) (P23458 583-855): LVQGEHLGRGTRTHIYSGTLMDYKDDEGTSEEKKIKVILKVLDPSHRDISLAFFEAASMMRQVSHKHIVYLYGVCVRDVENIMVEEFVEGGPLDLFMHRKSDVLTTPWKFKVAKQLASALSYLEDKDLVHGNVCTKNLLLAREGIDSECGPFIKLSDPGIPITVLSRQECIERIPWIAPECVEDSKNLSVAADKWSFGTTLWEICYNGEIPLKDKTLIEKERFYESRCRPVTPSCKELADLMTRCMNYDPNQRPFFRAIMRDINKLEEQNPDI

Work on `CC(C)(O)c1ccc(Nc2cc(Nc3ncccc3S(C)(=O)=O)c(C(=O)C3CC3)cn2)nc1F` [Example 159] yielded a Kd (JAK1 (JH2 domain); [8]) of less than 100 nM, an IC50 [1] of less than 100 nM and a Kd (TYK2 (JH2 domain)) of no more than 1 nM. It also gave a Kd (JAK2 (JH1 domain)) of 1000 to 10000 nM.
For `[2H]C([2H])([2H])CC(=O)c1cnc(NC(=O)C2CC2)cc1Nc1cccc(-c2ncn(C([2H])([2H])[2H])n2)c1OC` [Example 195], the IC50 [2] was 1 to 10 µM, the IC50 [3] was 1000 to 10000 nM and the Tmax ([4]; Oral (10 mg/kg)) was 30 min. The bioavailability ([4]; Oral (10 mg/kg)) was 41.7%, the half-life ([4]; Oral (10 mg/kg)) was 127 min and the Cmax ([4]; Oral (10 mg/kg), read-out: C0 or Cmax (Cmax)) was 4300 ng/mL. For the same compound, the clearance ([4]; iv, I.V. (2 mg/kg)) was 4.16 mL/min/kg, the half-life ([4]; iv, I.V. (2 mg/kg)) was 148 min and the Cmax ([4]; iv, I.V. (2 mg/kg), read-out: C0 or Cmax (C0)) was 2950 ng/mL. For the same compound, the Vd ([4]; iv, I.V. (2 mg/kg), read-out: Vdss) was 0.688 L/kg, the IC50 [1] was less than 100 nM and the AUC ([5]; Oral (5 mg/kg)) was 7440 ± 1400 ng·h/mL. It also gave a Tmax ([5]; Oral (5 mg/kg)) of 1.67 ± 0.58 h, a bioavailability ([5]; Oral (5 mg/kg)) of 46.7 ± 8.8% and a half-life ([5]; Oral (5 mg/kg)) of 142 ± 19.2 min. For the same compound, the Cmax ([5]; Oral (5 mg/kg), read-out: C0 or Cmax (Cmax)) was 1260 ± 226 ng/mL, the AUC ([5]; iv, I.V. (1 mg/kg)) was 3190 ± 603 ng·h/mL and the clearance ([5]; iv, I.V. (1 mg/kg)) was 4.96 ± 0.91 mL/min/kg. It also gave a half-life ([5]; iv, I.V. (1 mg/kg)) of 128 ± 7.2 min, a Cmax [5, 9] of 2150 ± 123 ng/mL and a Vd [5, 10] of 0.824 ± 0.11 L/kg. It also gave an AUC [6, 11] of 5420 ± 3250 ng·h/mL, a Tmax [6, 11] of 4 h and a bioavailability [6, 11] of 16.6 ± 9.95%. It also gave a half-life [6, 11] of 348 ± 43.8 min, a Cmax ([6]; Oral (2 mg/kg), NA: no detectable, read-out: C0 or Cmax (Cmax)) of 663 ± 497 ng/mL and an AUC ([6]; iv, I.V. (1 mg/kg)) of 16300 ± 664 ng·h/mL. The clearance ([6]; iv, I.V. (1 mg/kg)) was 0.898 ± 0.04 mL/min/kg, the half-life ([6]; iv, I.V. (1 mg/kg)) was 459 ± 33.6 min and the Cmax [6, 9] was 1290 ± 106 ng/mL. For the same compound, the Vd ([6]; iv, I.V. (1 mg/kg)) was 0.624 ± 0.03 L/kg, the AUC ([7]; Oral (2 mg/kg)) was 1520 ± 1330 ng·h/mL and the Tmax ([7]; Oral (2 mg/kg)) was 1.33 ± 0.58 h. It also gave a bioavailability ([7]; Oral (2 mg/kg)) of 26.2 ± 23%, a half-life ([7]; Oral (2 mg/kg)) of 344 ± 121 min and a Cmax ([7]; Oral (2 mg/kg), read-out: C0 or Cmax (Cmax)) of 285 ± 285 ng/mL. The AUC ([7]; iv, I.V. (1 mg/kg)) was 2900 ± 453 ng·h/mL, the clearance ([7]; iv, I.V. (1 mg/kg)) was 5.31 ± 0.93 mL/min/kg and the half-life ([7]; iv, I.V. (1 mg/kg)) was 401 ± 23.4 min. It also gave a Cmax [7, 9] of 185 ± 8.4 ng/mL and a Vd [7, 10] of 3.04 ± 0.27 L/kg.
With `[2H]C([2H])([2H])CC(=O)c1cnc(Nc2ccc(C(O)(C([2H])([2H])[2H])C([2H])([2H])[2H])c(F)n2)cc1Nc1ncccc1S(C)(=O)=O` [Example 203] the IC50 [2] was 1 to 10 µM, the IC50 [3] was 100 to 1000 nM and the IC50 [1] was less than 100 nM. For the same compound, the AUC ([6]; iv, I.V. (1 mg/kg)) was 595 ± 48 ng·h/mL, the clearance ([6]; iv, I.V. (1 mg/kg)) was 27.6 ± 1.9 mL/min/kg and the half-life ([6]; iv, I.V. (1 mg/kg)) was 57.1 ± 13.2 min. It also gave a Cmax [6, 9] of 787 ± 61 ng/mL and a Vd ([6]; iv, I.V. (1 mg/kg)) of 0.931 ± 0.01 L/kg.
`CCC(=O)c1cnc(NC(=O)C2CC2)cc1Nc1nccc(-c2ncn(C)n2)c1OC` [Example 163] gave a Kd (JAK1 (JH2 domain)) of less than 100 nM, an IC50 [1] of less than 100 nM and a Kd (TYK2 (JH2 domain)) of no more than 1 nM. For the same compound, the Kd (JAK2 (JH1 domain)) was 100 to 1000 nM.
`[2H]C([2H])([2H])NC(=O)c1nnc(NC(=O)N2CC(C)(C)C2)cc1Nc1cccc(-c2ncn(C)n2)c1OC` [Example 38] gave a Kd (JAK1 (JH2 domain); [8]) of less than 100 nM, an IC50 [1] of less than 100 nM and a Kd (TYK2 (JH2 domain)) of no more than 1 nM. It also gave a Kd (JAK2 (JH1 domain)) of 1000 to 10000 nM.
Work on `[2H]C([2H])([2H])NC(=O)c1nnc(N2CCN(C(C)C)C2=O)cc1Nc1nccc(-c2ncn(C)n2)c1OC` [Example 147, 6-(3-isopropyl-2-oxo-imidazolidin-1-yl)-4-[[3-methoxy-4-(1-methyl-1,2,4-triazol-3-yl)-2-pyridyl]amino]-N-(trideuteriomethyl)pyridazine-3-carboxamide] yielded a Kd (JAK1 (JH2 domain); [8]) of less than 100 nM, an IC50 [1] of less than 100 nM and a Kd (TYK2 (JH2 domain)) of no more than 1 nM. It also gave a Kd (JAK2 (JH1 domain)) greater than 10000 nM.
Work on `COc1c(-c2ncn(C)n2)ccnc1Nc1cc(NC(=O)C2CC2)ncc1C(=O)C1CC1` [Example 166] yielded a Kd (JAK1 (JH2 domain); [8]) of less than 100 nM, an IC50 [1] of less than 100 nM and a Kd (JAK2 (JH1 domain)) of 1000 to 10000 nM.
